Values of other authors, collected in US20120101089A1, “Anti-Emetic Substance” (priority 2010, published 2012).
“Also recorded” adds a separate entry of the source. Where two headings read alike, the source gives them in different places.

Columns and labels:
[1] = for Adverse Effect: common adverse effects associated with single agents, listed per class; for sedation, droperidol versus ondansetron groups: i.v. ondansetron 4 mg, droperidol 20 μg/kg, outpatient gynaecological laparoscopy
[2] = for PONV prevention versus comparators: major gynecological surgery; for PONV prevention versus metoclopramide 10 mg or placebo: granisetron 3 mg, tropisetron 5 mg before start of anesthesia (Naguib); for prevention of PONV symptoms: i.v. tropisetron 5 mg, droperidol 1.25 mg at the end of gynaecological surgery (Purhonen); for prevention of PONV versus placebo: ephedrine 0.5 mg/kg i.m., propofol […] i.v., laparoscopic surgery
[3] = for optimal dose for PONV treatment: children older than 2 years, intravenously
[4] = not given; remark: listed apart in the source
[5] = not given; remark: listed apart in the source
[6] = 15 mg and 0.15 mg/kg i.v. immediately after umbilical cord clamped; lidocaine, morphine epidural

For `O=C(OC1CC2CC3CC(C1)N2CC3O)c1c[nH]c2ccccc12` (centres unmarked) [hydrodolasetron], which “share of the anti-emetic effect” value (active metabolite of dolasetron) is on record?
The value was 87%.

What about the mean half-life (intravenous form) of the same compound?
Its mean half-life is about 8.3 h.

What about the mean half-life (oral form) of the same compound?
Its mean half-life is “approximately 7.1 hours”.

What does the source list for `CN1C2CCCC1CC(NC(=O)c1nn(C)c3ccccc13)C2` (centres unmarked) [granisetron, Granisetron]?
Adverse Effect [1]: Headache, dizziness; PONV prevention versus comparators ([2]; 40 μg/kg immediately prior to induction, women during menstruation (Fujii)): more effective than droperidol 25 μg/kg or metoclopramide 0.2 mg/kg; optimal dose for PONV prevention ([2]; adults and children, intravenous, other studies): 0.04 mg/kg; optimum effective prophylactic dose ([2]; adults, i.v. immediately before the start of anesthesia, 0.1, 1 and 3 mg compared): 1 mg; PONV prevention versus comparators ([2]; i.v. 2.5 mg immediately prior to anesthesia, history of postoperative emesis and motion sickness): more effective than droperidol 1.25 mg or metoclopramide 10 mg; PONV prevention versus metoclopramide 10 mg or placebo ([2]; i.v. ondansetron 4 mg): significantly greater anti-emetic effectiveness than metoclopramide or placebo

Which results are given for `O=C(O[C@@H]1C[C@@H]2C[C@H]3C[C@H](C1)N2CC3=O)c1c[nH]c2ccccc12` [dolasetron, Dolasetron]?
clearance and half-life in children compared with young healthy adult volunteers (children): increased clearance and a shorter half-life; elimination half-life (parent compound): 9 min

With `Cc1ncc2n1-c1ccc(Cl)cc1C(c1ccccc1F)=NC2` [midazolam, Midazolam] as the compound, how does the “prevention of vomiting after tonsillectomy” value ([2]; 75 μg/kg i.v. after induction of anesthesia, children) read?
Its value is “effective for the prevention of vomiting”.

Which “Adverse Effect” value [1] does the source give for `OCCOCCN1CCN(C(c2ccccc2)c2ccc(Cl)cc2)CC1` (centres unmarked) [hydroxyzine, Hydroxyzine] here?
The value was “Sedation, dry mouth,”.

And the “incidence of PONV versus droperidol” value ([2]; i.m. 100 mg after induction of anesthesia, non-premedicated patients)?
The value was “decrease the incidence of PONV more effectively than intramuscular droperidol 2.5 mg”.

For `CN(C)CCCN1c2ccccc2Sc2ccc(Cl)cc21` [chlorpromazine], which “Adverse Effect” value [1] is on record?
Its value is “Sedation, EPS, hypotension,”.

What does the source list for `CN1[C@@H]2CC[C@H]1C[C@@H](OC(=O)c1c[nH]c3ccccc13)C2` [tropisetron, Tropisetron]?
Adverse Effect [1]: Headache, dizziness; optimal effective dose for treatment of PONV ([3]; intravenous, abdominal and non-abdominal surgeries (Alon)): 2 mg; prevention of PONV ([2]; 5 mg i.v. before start of anesthesia, breast and gynaecological surgery): effective for prevention of PONV; PONV prevention versus metoclopramide 10 mg or placebo ([2]; i.v. ondansetron 4 mg): significantly greater anti-emetic effectiveness than metoclopramide or placebo; prevention of PONV symptoms [2]: effectively prevented vomiting, but not nausea and retching; patients with response ([4]; single agent, first study): about 80%

What does the source list for `OCCN1CCN(CCCN2c3ccccc3Sc3ccc(Cl)cc32)CC1` [perphenazine]?
Adverse Effect [1]: Sedation, EPS, hypotension,; efficacy in preventing PONV versus comparator ([2]; children after tonsillectomy, prophylactic 70 μg/kg): more effective than dexamethasone 150 μg/kg; also recorded: equally as effective as ondansetron 150 μg/kg; emesis after tonsillectomy ([2]; paediatric patients, prophylactic i.v. 70 μg/kg): decreased emesis

Which “Adverse Effect” value [1] does the source give for `CCN(CC)C(=O)C1CN2CCc3cc(OC)c(OC)cc3C2CC1OC(C)=O` (centres unmarked) [benzquinamide, Benzquinamide] here?
The value was “Sedation, EPS, restlessness,”.

Which “Adverse Effect” value [1] does the source give for `CN1CCN(C(c2ccccc2)c2ccccc2)CC1` [cyclizine, Cyclizine] here?
The value was “Sedation, dry mouth,”.

Which results are given for `O=C(CCCN1CCC(O)(c2ccc(Cl)cc2)CC1)c1ccc(F)cc1` [haloperidol]?
Adverse Effect [1]: Sedation, EPS,; effectiveness in PONV ([2]; 7 μg/kg i.v. and 0.5 to 4.0 mg i.m. for prevention, 1 mg i.m. for treatment): effective in PONV, with little sedative effect; duration of action (intramuscular): approximately 12 hours; onset time / onset of action (intramuscular): approximately 30 minutes

Which “Adverse Effect” value [1] does the source give for `CCN(CC)CCNC(=O)c1cc(Cl)c(N)cc1OC` [metoclopramide, Metoclopramide] here?
The value was “Sedation, EPS, restlessness,”.

What about the “treatment of PONV versus comparators” value ([3]; 10 mg intravenously) of the same compound?
The value was “as effective as intravenous droperidol 1.25 mg and more effective than intravenous propofol 10 mg”.

What about the “effect on emetic effects of opioids” value ([5]; additional 10 to 20 mg i.m. at the end of the operation) of the same compound?
The value was “reduced the emetic effects of pethidine, but had less effect when morphine was given”.

And the “effect on pre-anaesthetic emetic effects of pethidine” value ([5]; preoperative 10 and 20 mg intramuscularly)?
Its value is “abolished the pre-anaesthetic emetic effects of pethidine”.

And the “incidence of nausea and vomiting” value [6]?
Its value is “effectively reduce the incidence of nausea and vomiting”.

For `CC(CN1c2ccccc2Sc2ccccc21)N(C)C` (centres unmarked) [promethazine], which “Adverse Effect” value [1] is on record?
Its value is “Sedation, EPS, hypotension,”.

For `CN1[C@@H]2C[C@@H](OC(=O)[C@H](CO)c3ccccc3)C[C@H]1[C@@H]1O[C@@H]12` [scopolamine, Scopolamine], which “Adverse Effect” value [1] is on record?
Its value is “Sedation, dry mouth,”.

Which “patients with some emesis control” value ([4]; single-arm study) does the source give for `CS(=O)(=O)O.O=C(OC1C[C@@H]2CC3C[C@H](C1)N2CC3=O)c1c[nH]c2ccccc12` (some centres unmarked) [dolasetron mesylate] here?
Its value is 65%.

Which “incidence of adverse events after additional dose” value ([1]; additional 4 mg postoperatively) does the source give for `Cc1nccn1CC1CCc2c(c3ccccc3n2C)C1=O` (centres unmarked) [ondansetron, Ondansetron] here?
Its value is “did not result in an increased incidence of adverse events”.

What about the “Adverse Effect” value [1] of the same compound?
Its value is “Headache, dizziness”.

And the “sedation, droperidol versus ondansetron groups” value [1]?
The value was “no difference”.

And the “optimal dose for PONV treatment” value ([3]; <40 kg)?
The value was 0.1 mg/kg.

And the “optimal dose for PONV treatment” value ([3]; >40 kg)?
The value was 4 mg.

What about the “treatment of PONV versus comparators” value ([3]; i.v. 4 mg, following gynecological laparoscopy (Polati)) of the same compound?
Its value is “better efficacy than intravenous metoclopramide 10 mg or placebo”.

What about the “control of PONV by repeat dose” value ([3]; repeat i.v. 4 mg in PACU after failed prophylaxis with i.v. 4 mg (Kovac)) of the same compound?
Its value is “does not appear to offer additional control of PONV”.

What about the “optimal effective dose for PONV” value ([2]; adults, intravenously at the start of anesthesia) of the same compound?
Its value is 4 mg.

And the “optimal effective dose for PONV” value ([2]; adults, orally 1 to 2 hours before anesthesia)?
Its value is 8 mg.

What about the “optimal dose for PONV prevention” value ([2]; children older than 2 years, orally) of the same compound?
The value was 0.1 mg/kg.

What about the “prevention of vomiting versus comparators” value ([2]; i.v. 0.1 mg/kg, children undergoing adenotonsillectomy) of the same compound?
The value was “more effective in preventing vomiting than dimenhydrimate 0.5 mg/kg or placebo”.

And the “efficacy by timing of administration” value ([2]; i.v. 4 mg, end of surgery versus before induction of anesthesia)?
Its value is “significantly better when administered at the end of surgery”.

And the “patients with emesis versus i.v. metoclopramide 10 mg or droperidol 0.625 mg” value ([2]; i.v. 8 mg prior to anesthesia (Alon and Himmelseher))?
The value was “fewer”.

What about the “difference between ondansetron and dexamethasone administered alone” value ([2]; i.v. ondansetron 4 mg, dexamethasone 8 mg, major gynaecological surgery) of the same compound?
Its value is “No difference”.

And the “PONV prevention versus metoclopramide 10 mg or placebo” value ([2]; i.v. ondansetron 4 mg)?
The value was “significantly greater anti-emetic effectiveness than metoclopramide or placebo”.

And the “control of vomiting and nausea during subsequent days of chemotherapy” value ([4]; single agent (Barbounis))?
The value was “progressive decline”.

What about the “cases in which effective” value ([4]; single agent, day 1 of chemotherapy administration (Barbounis)) of the same compound?
The value was “about 76%”.

Which results are given for `CC(C)c1cccc(C(C)C)c1O` [propofol]?
prevention of PONV by anesthetic used ([2]; 0.5 mg/kg i.v., outpatient laparoscopic cholecystectomy): more effective in preventing PONV after sevoflurane anesthesia than desflurane anesthesia; plasma concentration necessary to obtain a 50% reduction in postoperative nausea ([2]; 10 mg i.v. bolus followed by infusion of 10 μg/kg/min): 343 ng/L; overall occurrence of PONV versus 10% Intralipid ([2]; 20-hour postoperative 0.1 ml/kg/hour infusion): less; prevention of PONV versus placebo [2]: more effective, with no haemodynamic changes, than placebo; effect on PONV ([2]; i.v. bolus 0.1 mg/kg followed by constant infusion of 1 mg/kg/hour): no effect on PONV; PONV prophylaxis versus thiopentone 1.0 mg/kg ([2]; i.v. subhypnotic 0.5 mg/kg, first 6 hours after middle ear surgery): significantly better PONV prophylaxis against retching and vomiting; prevention of PONV versus ondansetron ([2]; intraoperative intravenous, first 6 hours postoperatively): equally as effective as intravenous ondansetron 4 mg

What does the source list for `O=C(CCCN1CC=C(n2c(=O)[nH]c3ccccc32)CC1)c1ccc(F)cc1` [droperidol]?
sedation or other adverse effects ([1]; 1.25 mg dose (Fortney)): no increase in sedation or other adverse effects; Adverse Effect [1]: Sedation, EPS,; adverse effects (dystonic reactions, EPS, sedation) ([1]; i.v. 0.625 mg and 1.25 mg): few adverse effects; sedation or other adverse effects ([1]; i.v. 0.625 mg or 1.25 mg, outpatient gynecological operations): no increase in sedation or other adverse effects; anxiety and drowsiness ([1]; i.v. 1.25 mg at the end of gynaecological surgery (Purhonen)): increase in anxiety and drowsiness; adverse effects versus studies with dose less than 2.5 mg ([1]; i.v. 2.5 mg): more adverse effects (i.e. sedation, dizziness); sedation, droperidol versus ondansetron groups [1]: no difference; prevention of PONV ([2]; 5 μg/kg i.v. 1 hour before end of anesthesia, children 11 to 15 years): effective in preventing PONV; best anti-emetic effectiveness among groups ([2]; 1.25 mg dose (Fortney)): best anti-emetic effectiveness; prevention of PONV versus i.v. droperidol 1.25 mg or ondansetron 4 mg ([2]; i.v. 0.625 mg at start of anesthesia, outpatient gynecological operations): as effective; PONV prevention, low versus higher dose ([2]; i.v. 0.625 mg immediately following intubation): as effective as intravenous droperidol 1.25 mg; prevention of PONV versus comparators ([2]; i.v. 1.25 mg before end of general anesthesia, female patients, elective orthopaedic surgery): significantly superior to intravenous metoclopromide 10 mg and a saline placebo; prevention of PONV versus comparators ([2]; i.v. 1.25 mg immediately before end of anesthesia, day-stay and major gynaecological surgery): superior to intravenous metoclopramide 10 mg, intravenous domperidone 5 mg and an intravenous saline placebo; patients with no emesis versus i.v. ondansetron 8 mg ([2]; i.v. 2.5 mg, women, inpatient minor gynaecological surgery): more patients; prevention of PONV symptoms [2]: failed to prevent any PONV symptoms; anti-emetic effectiveness versus haloperidol ([2]; intramuscular 5 mg): equivalent anti-emetic effectiveness to intramuscular haloperidol 2 mg; duration of action / effect (following administration, route not stated): ≤ 24 h

With `CN[C@@H](C)[C@H](O)c1ccccc1` [ephedrine] as the compound, how does the “prevention of PONV versus placebo” value [2] read?
Its value is “more effective, with no haemodynamic changes, than placebo”.
